# Data: patent US20230040125A1, “TARGETING THE INTRINSIC APOPTOTIC MACHINERY IN GLIOBLASTOMA” (The Regents of The University Of California, priority 2019, published 2023)
# Entries after “also recorded” stand apart in the source; their conditions may differ.
# System: GBM lines
# Assay: TMZ/IR titrated across a panel of GBM lines with a fixed dose of BCLXL inhibitor, cell death
# Assay type: cell-based
# Conditions: TMZ/IR titrated with a fixed dose of A1155463
# From the text: In the triplet of histogram bars for each dosage, the left bar represents all data (TMZR/IR alone, n=17), the center bar represents p53 WT+BCLXL In. (n=12), and the right bar represents p53 mutants+BCLXL In. (n=5). […] To investigate if BCL-xL is preventing the standard of care from inducing apoptosis, TMZ/IR were titrated in across a panel of genetically diverse GBM lines (n=17) with a fixed dose of BCLXL inhibitor (A1155463).
structure (smiles),measurement,setting,value
CN(C)CC#Cc1ccc(OCCCc2sc(N3CCc4cccc(C(=O)Nc5nc6ccccc6s5)c4C3)nc2C(=O)O)c(F)c1 [A1155463],cell death,"p53 mutant GBM, panel n=17 (p53 mutants n=5)",no added benefit
same,cell death,"p53 wild type GBM, panel n=17 (p53 WT n=12)",significantly increase cell death; also recorded: increases cell death
